Laboratory results taken from PMC10313624 (EJNMMI Radiopharmacy and Chemistry, 2023).
Where two headings read alike, the source gives them in different places. Marks after values point to notes of the source that are not given here. Values belong to the molecule of their own block, whether it stands above or below them. Bridge positions count the residues as written; N and C are the ends. Square brackets hold non-standard residues; d marks the D form. Peptide text beside a SMILES is read from it. * marks the point of attachment. DOTA = O=C(O)CN1CCN(CC(=O)O)CCN(CC(=O)*)CCN(CC(=O)O)CC1; dPhe(4-NHCONH2) = NC(=O)Nc1ccc(C[C@@H](N)C(=O)O)cc1; Dihydroorotyl(S) = O=C1C[C@@H](C(=O)*)NC(=O)N1; Phe(4-Cl) = N[C@@H](Cc1ccc(Cl)cc1)C(=O)O; Phe(4-NH2) = Nc1ccc(C[C@H](N)C(=O)O)cc1

How the values were obtained:
SSTR2 = test system: SSTR2; parameters: method as in Hou et al. [2022]; Zhu et al. [2020]; Fani et al. [2017]; settings: compared to DOTA-TATE; ref Hou et al. [2022]; Zhu et al. [2020]; Fani et al. [2017]; cited from earlier work
in vitro = in vitro ADME; settings: mouse, serum
Experimental: (§1) Haarlerbergweg, The Netherlands) (250 and 100 µL, respectively) at 37 °C. […] In mouse serum, the proteins were precipitated by adding an aliquot of the radiotracer to an equal volume of acetonitrile. The vial was vortexed vigorously and centrifuged for 20 min at 10,000 rpm. Stability studies were monitored by radio-HPLC (Additional file 1: Figs. S5 and S6).

[1] = assay type: physicochemical; settings: 37 °C, radio-HPLC, n = 1
Experimental: as §1

[2] = in vivo; cited from earlier work

SMILES: C[C@@H](O)[C@@H]1NC(=O)[C@H](CCCCN)NC(=O)[C@@H](Cc2ccc(NC(N)=O)cc2)NC(=O)[C@H](Cc2ccc(NC(=O)[C@@H]3CC(=O)NC(=O)N3)cc2)NC(=O)[C@H](NC(=O)[C@H](Cc2ccc(Cl)cc2)NC(=O)CN2CCN(CC(=O)O)CCN(CC(=O)O)CCN(CC(=O)O)CC2)CSSC[C@@H](C(=O)N[C@H](Cc2ccc(O)cc2)C(N)=O)NC1=O [DOTA-JR11] ({DOTA}-[Phe(4-Cl)][dC][Phe(4-NH2)](Dihydroorotyl(S))[dPhe(4-NHCONH2)]KTC[dY]-NH2; disulfide 2-7; C-terminus assumed)
binding affinity to SSTR2 (SSTR2): lower binding affinity

remaining at 2 h, 12 MBq/mL (in vitro): 94.5% | remaining at 24 h, 12 MBq/mL (in vitro): 93.7%
SMILES: C[C@@H](O)[C@@H]1NC(=O)[C@H](CCCCN)NC(=O)[C@@H](Cc2ccc(NC(N)=O)cc2)NC(=O)[C@H](Cc2ccc(NC(=O)[C@@H]3CC(=O)NC(=O)N3)cc2)NC(=O)[C@H](NC(=O)[C@H](Cc2ccc(Cl)cc2)NC(=O)CN2CCN(CC(=O)O)CCN(CC(=O)O)CCN(CC(=O)O)CC2)CSSC[C@@H](C(=O)N[C@H](Cc2ccc(O)cc2)C(N)=O)NC1=O [[^177Lu]Lu-DOTA-JR11, metal not drawn] ({DOTA}-[Phe(4-Cl)][dC][Phe(4-NH2)](Dihydroorotyl(S))[dPhe(4-NHCONH2)]KTC[dY]-NH2; disulfide 2-7 (inferred); C-terminus assumed)

PBS (%) intact radiolabeled peptide ([1]; 2 h, 1.2 MBq in 200 µL PBS): 96.5% | PBS (%) intact radiolabeled peptide ([1]; 24 h, 1.2 MBq in 200 µL PBS): 96.8%
SMILES: C[C@@H](O)[C@@H]1NC(=O)[C@H](CCCCN)NC(=O)[C@@H](Cc2ccc(NC(N)=O)cc2)NC(=O)[C@H](Cc2ccc(NC(=O)[C@@H]3CC(=O)NC(=O)N3)cc2)NC(=O)[C@H](NC(=O)[C@H](Cc2ccc(Cl)cc2)NC(=O)CN2CCN(CC(=O)O)CCN(CC(=O)O)CCN(CC(=O)O)CC2)CSSC[C@@H](C(=O)N[C@H](Cc2ccc(O)cc2)C(N)=O)NC1=O [[^177Lu]Lu-DOTA-JR11] [metal not drawn] ({DOTA}-[Phe(4-Cl)][dC][Phe(4-NH2)](Dihydroorotyl(S))[dPhe(4-NHCONH2)]KTC[dY]-NH2; disulfide 2-7 (inferred); C-terminus assumed)
hematologic toxicity [2]: severe grade 4 hematologic toxicity

remaining at 22 h, 200 kBq/mL (in vitro): 80.9% | remaining at 24 h, 200 kBq/mL (in vitro): 81.4% | remaining at 27 h, 200 kBq/mL (in vitro): 81%
SMILES: C[C@@H](O)[C@@H]1NC(=O)[C@H](CCCCN)NC(=O)[C@@H](Cc2ccc(NC(N)=O)cc2)NC(=O)[C@H](Cc2ccc(NC(=O)[C@@H]3CC(=O)NC(=O)N3)cc2)NC(=O)[C@H](NC(=O)[C@H](Cc2ccc(Cl)cc2)NC(=O)CN2CCN(CC(=O)O)CCN(CC(=O)O)CCN(CC(=O)O)CC2)CSSC[C@@H](C(=O)N[C@H](Cc2ccc(O)cc2)C(N)=O)NC1=O [[^225Ac]Ac-DOTA-JR11, metal not drawn] ({DOTA}-[Phe(4-Cl)][dC][Phe(4-NH2)](Dihydroorotyl(S))[dPhe(4-NHCONH2)]KTC[dY]-NH2; disulfide 2-7 (inferred); C-terminus assumed)

PBS (%) intact radiolabeled peptide ([1]; radiolabeling condition 1, 22 h, 50 kBq in 500 µL PBS): 76.9^a % | PBS (%) intact radiolabeled peptide ([1]; radiolabeling condition 2 (without L-melatonin), 24 h, 50 kBq in 500 µL PBS): 56.6^b % | PBS (%) intact radiolabeled peptide ([1]; radiolabeling condition 3 (with L-melatonin), 27 h, 50 kBq in 500 µL PBS): 81.0^c %
SMILES: C[C@@H](O)[C@@H]1NC(=O)[C@H](CCCCN)NC(=O)[C@@H](Cc2ccc(NC(N)=O)cc2)NC(=O)[C@H](Cc2ccc(NC(=O)[C@@H]3CC(=O)NC(=O)N3)cc2)NC(=O)[C@H](NC(=O)[C@H](Cc2ccc(Cl)cc2)NC(=O)CN2CCN(CC(=O)O)CCN(CC(=O)O)CCN(CC(=O)O)CC2)CSSC[C@@H](C(=O)N[C@H](Cc2ccc(O)cc2)C(N)=O)NC1=O [[^225Ac]Ac-DOTA-JR11] [metal not drawn] ({DOTA}-[Phe(4-Cl)][dC][Phe(4-NH2)](Dihydroorotyl(S))[dPhe(4-NHCONH2)]KTC[dY]-NH2; disulfide 2-7 (inferred); C-terminus assumed)
